According to paper PMC5233616, “Structural and functional analyses of human DDX41 DEAD domain” (Protein & Cell, 2016):

What was measured:
[1] = target: T1, hDDX41 DEAD domain (Homo sapiens, UniProt Q9UJV9); test: thermal shift assay; format: binding; settings: unliganded Tm 41 °C
T1 construct: gene DDX41; isolated DEAD domain (domain 1; motifs Q to III); monomer; full length is 1-622

[2] = target: T1, hDDX41 DEAD domain; test: isothermal titration calorimetry; settings: read-out: binding affinity

T1 sequence (Q9UJV9 155-407 limits assumed): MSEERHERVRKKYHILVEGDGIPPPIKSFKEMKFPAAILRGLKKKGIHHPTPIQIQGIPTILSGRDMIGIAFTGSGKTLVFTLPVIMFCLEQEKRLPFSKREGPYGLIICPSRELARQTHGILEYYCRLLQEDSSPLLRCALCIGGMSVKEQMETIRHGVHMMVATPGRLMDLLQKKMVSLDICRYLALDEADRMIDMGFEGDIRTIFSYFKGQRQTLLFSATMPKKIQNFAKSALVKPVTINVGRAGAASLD

Row | Tm increase [1] | Kd [2] | Structure (SMILES)
1 | 2.2 °C | 31 µM | Nc1ncnc2c1ncn2[C@@H]1O[C@H](COP(=O)(O)OP(=O)(O)O)[C@@H](O)[C@H]1O [ADP]
2 | 3.9 °C | 61 µM | Nc1ncnc2c1ncn2[C@@H]1O[C@H](COP(=O)(O)O)[C@@H](O)[C@H]1O [AMP]
